{
  "source": "paper PMC12322656",
  "about": "“N‐ to C‐Glycoside Rearrangement of Uridine 5′‐Phosphate in Two Enzymatic Steps for the Production of Pseudouridine 5′‐Phosphate” (Biotechnology and Bioengineering, 2025)",
  "key": {"[1]": {"molecular_target": "T1, PpnN (purine/pyrimidine nucleotide 5'-phosphate nucleosidase; EC 3.2.2.10) (Escherichia coli, UniProt P0ADR8, R341A/Y347A)", "T1 construct": "subunit 51,794 Da (wild type; RY 51,440 Da); wild type tetramer, RY variant monomer", "T1 sequence (P0ADR8 1-454 R341A/Y347A)": "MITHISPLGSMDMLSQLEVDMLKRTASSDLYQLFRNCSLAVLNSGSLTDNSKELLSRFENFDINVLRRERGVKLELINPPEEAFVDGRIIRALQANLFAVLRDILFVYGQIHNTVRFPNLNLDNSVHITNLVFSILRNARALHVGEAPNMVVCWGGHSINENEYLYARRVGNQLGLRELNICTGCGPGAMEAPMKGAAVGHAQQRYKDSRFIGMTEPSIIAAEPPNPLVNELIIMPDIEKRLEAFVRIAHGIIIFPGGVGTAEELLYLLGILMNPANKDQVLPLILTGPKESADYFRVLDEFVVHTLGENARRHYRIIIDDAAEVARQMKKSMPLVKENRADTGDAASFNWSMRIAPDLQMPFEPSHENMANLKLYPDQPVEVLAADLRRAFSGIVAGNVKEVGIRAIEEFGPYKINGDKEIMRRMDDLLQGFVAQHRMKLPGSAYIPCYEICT", "test": "initial-rate inhibition, HPLC of uracil release, nonlinear fit", "format": "biochemical", "conditions": "substrate UMP; 50 mM HEPES pH 7.5, 40 °C; competitive; RY variant, monomer"}, "[2]": {"molecular_target": "T2, PpnN (purine/pyrimidine nucleotide 5'-phosphate nucleosidase; EC 3.2.2.10) (Escherichia coli, UniProt P0ADR8)", "T2 construct": "subunit 51,794 Da (wild type; RY 51,440 Da); wild type tetramer, RY variant monomer", "T2 sequence (P0ADR8 1-454)": "T1 sequence (P0ADR8 1-454 R341A/Y347A) with A341R, A347Y", "test": "initial-rate inhibition, HPLC of uracil release, nonlinear fit", "format": "biochemical", "conditions": "substrate UMP; 50 mM HEPES pH 7.5, 40 °C; competitive; wild type"}},
  "note": "Changes are numbered by the printed parent chain.",
  "data": [
    {"smiles": "O=P(O)(O)OC[C@H]1OC(O)[C@H](O)[C@@H]1O", "note": "(stereo partly drawn) [D-ribose 5-phosphate]", "values": [
      {"measurement": "Ki", "setting": "[1]", "value": "1200 ± 100", "unit": "µM"},
      {"measurement": "Ki", "setting": "[2]", "value": 100, "unit": "µM"}
    ]}
  ]
}
